target: Nuclear receptor ROR-alpha (Homo sapiens) (UniProt P35398); assay: activators of RORA nuclear receptor, dose response, cell-based, CHO-K1, Gal4-RORA LBD, luciferase luminescence (AID 681); conditions: CHO-K1 Gal4-RORA LBD luciferase reporter
Sequence (P35398 whole entry, looked up, the tested form may be a part): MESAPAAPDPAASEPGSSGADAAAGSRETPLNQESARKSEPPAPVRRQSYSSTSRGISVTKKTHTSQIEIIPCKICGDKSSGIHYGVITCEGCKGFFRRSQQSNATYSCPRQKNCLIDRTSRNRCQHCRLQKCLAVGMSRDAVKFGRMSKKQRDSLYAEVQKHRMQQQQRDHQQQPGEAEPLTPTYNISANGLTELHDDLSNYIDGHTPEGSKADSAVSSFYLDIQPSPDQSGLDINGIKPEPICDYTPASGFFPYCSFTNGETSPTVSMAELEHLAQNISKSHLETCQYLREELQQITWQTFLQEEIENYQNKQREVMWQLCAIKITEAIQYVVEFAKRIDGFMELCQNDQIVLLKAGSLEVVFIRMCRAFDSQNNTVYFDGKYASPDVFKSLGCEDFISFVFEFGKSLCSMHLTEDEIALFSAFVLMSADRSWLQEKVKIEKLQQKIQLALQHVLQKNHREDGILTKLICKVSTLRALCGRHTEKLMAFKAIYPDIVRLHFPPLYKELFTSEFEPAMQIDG

| Structure (SMILES) | EC50 |
| --- | --- |
| O=C1COc2ccc(OCc3ccc(F)cc3)cc21 | 3630 nM |
| CCOc1ccc(/C=C\C(C)=N\O)cc1 | 491 nM |
| C=CCOc1ccc(/C=C/C(C)=N\O)cc1 | 1350 nM |
